Reference: PMC7044277 (Nature Communications, 2020)
Values joined by “and” are separate entries in the source; they are usually repeats but may differ in a detail not shown here. Identical values can stand only once.

Experiments:
DRD4 (D4.4 variant) = biological target: T1, DRD4 (D4.4 variant) (Homo sapiens, UniProt P21917); test: β-arrestin2 recruitment (Tango); assay type: cell-based; conditions: for Fig_S10c concentration-response source data, compound alone (replicates): agonist mode
T1 sequence (P21917 1-419): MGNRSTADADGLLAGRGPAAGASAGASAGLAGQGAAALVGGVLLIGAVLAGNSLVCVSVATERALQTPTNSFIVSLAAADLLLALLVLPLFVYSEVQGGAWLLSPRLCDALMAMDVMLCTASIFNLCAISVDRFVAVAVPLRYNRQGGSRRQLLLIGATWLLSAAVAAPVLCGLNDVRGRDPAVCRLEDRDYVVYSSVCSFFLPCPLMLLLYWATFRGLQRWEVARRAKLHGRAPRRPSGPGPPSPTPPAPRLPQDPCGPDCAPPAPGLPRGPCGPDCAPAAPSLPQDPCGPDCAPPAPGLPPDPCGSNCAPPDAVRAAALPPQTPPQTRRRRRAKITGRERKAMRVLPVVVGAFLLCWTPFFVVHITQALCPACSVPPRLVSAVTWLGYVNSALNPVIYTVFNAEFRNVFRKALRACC

5HT1F = biological target: T2, 5HT1F (Homo sapiens, UniProt P30939); test: β-arrestin2 recruitment (Tango); assay type: cell-based; conditions: for β-arrestin2 recruitment response, agonist mode (single replicate values): Fig_S10j; for Fig_S10j dose-response, drug alone (agonist mode), β-arrestin2 recruitment: single replicate values
T2 construct: expressed in transfected cells; host or cells: HTLA cells expressing TEV-fused β-arrestin2
T2 sequence (P30939 1-366): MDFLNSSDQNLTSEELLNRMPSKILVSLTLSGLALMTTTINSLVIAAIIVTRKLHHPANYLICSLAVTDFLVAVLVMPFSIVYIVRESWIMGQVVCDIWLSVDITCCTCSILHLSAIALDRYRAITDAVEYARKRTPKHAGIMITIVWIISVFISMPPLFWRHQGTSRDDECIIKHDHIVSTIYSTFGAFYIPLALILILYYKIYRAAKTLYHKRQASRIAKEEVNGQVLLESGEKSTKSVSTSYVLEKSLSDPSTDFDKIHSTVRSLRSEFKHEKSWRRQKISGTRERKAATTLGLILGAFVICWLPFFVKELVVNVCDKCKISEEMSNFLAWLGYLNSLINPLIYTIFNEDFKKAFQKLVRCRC

Compound: CCOc1cccc2cc([C@@H](C)NCC3(O)CCCCC3)oc12 [O4RE6]
- β-arrestin2 recruitment response at DRD4 (source data, replicate values) (DRD4 (D4.4 variant); Log[Drug] -5): 6.217 and 2.763 and 2.001 and 1.287 and 1.775 and 4.058 and 4.003 and 0.06427 and 0.2106
- Fig_S10c concentration-response source data, compound alone (replicates) (DRD4 (D4.4 variant); Log[Drug] -5): 5.394 and 8.31 and 11.4353 and 9.275 and 2.582 and 4.074 and 8.729 and 7.933 and 14.0378
- β-arrestin2 recruitment response at DRD4 (source data, replicate values) (DRD4 (D4.4 variant); Log[Drug] -5.52): 2.6039 and -1.106 and -1.946 and -0.4701 and 1.404 and 2.39 and 0.8979 and 0.0552 and 0.08381
- Fig_S10c concentration-response source data, compound alone (replicates) (DRD4 (D4.4 variant); Log[Drug] -5.52): 1.202 and 2.837 and 2.321 and 1.635 and 2.366 and 3.787 and 1.627 and 3.207 and 0.6688
- β-arrestin2 recruitment response at DRD4 (source data, replicate values) (DRD4 (D4.4 variant); Log[Drug] -6): 3.584 and -1.188 and -0.584 and -0.6588 and 0.8796 and 1.83 and 0.7762 and 0.03516 and 0.171
- Fig_S10c concentration-response source data, compound alone (replicates) (DRD4 (D4.4 variant); Log[Drug] -6): 2.086 and 2.7849 and 3.425 and -0.09437 and 0.02849 and 3.5238 and 0.3966 and 3.288 and 1.462
- β-arrestin2 recruitment response at DRD4 (source data, replicate values) (DRD4 (D4.4 variant); Log[Drug] -6.52): 1.007 and 4.325 and 1.323 and -0.8974 and 1.527 and -0.05366 and -0.1047 and 0.03541 and 0.08444
- Fig_S10c concentration-response source data, compound alone (replicates) (DRD4 (D4.4 variant); Log[Drug] -6.52): 1.505 and 1.478 and 5.593 and -1.936 and -0.8155 and 0.5983 and 2.508 and 1.037 and -0.4712
- β-arrestin2 recruitment response at DRD4 (source data, replicate values) (DRD4 (D4.4 variant); Log[Drug] -7): 1.079 and -1.731 and -1.221 and -1.369 and 0.6898 and 0.678 and 1.948 and 0.1059 and 0.1355
- Fig_S10c concentration-response source data, compound alone (replicates) (DRD4 (D4.4 variant); Log[Drug] -7): 2.288 and 4.238 and 0.7634 and -1.02 and 3.3404 and -2.026 and 1.575 and 0.945 and -0.6741
- β-arrestin2 recruitment response at DRD4 (source data, replicate values) (DRD4 (D4.4 variant); Log[Drug] -7.52): 0.371 and -1.716 and -1.784 and -0.5805 and -0.6243 and 1.534 and -0.4267 and 0.02533 and 0.04436
- β-arrestin2 recruitment response at DRD4 (source data, replicate values) (DRD4 (D4.4 variant); Log[Drug] -8): 0.8799 and -0.7087 and -1.711 and -1.318 and -0.195 and -0.3626 and 1.952 and 0.0707 and 0.1967
- β-arrestin2 recruitment response at DRD4 (source data, replicate values) (DRD4 (D4.4 variant); Log[Drug] -8.52): 1.656 and -1.517 and -1.8 and 0.5698 and 0.5353 and -0.6701 and 0.003927 and 0.031 and 0.0242
- β-arrestin2 recruitment response at DRD4 (source data, replicate values) (DRD4 (D4.4 variant); Log[Drug] -9): 0.08244 and -0.5912 and 1.416 and -2.021 and 1.101 and 0.6872 and 0.9463 and -0.03415 and 0.05621
- β-arrestin2 recruitment response at DRD4 (source data, replicate values) (DRD4 (D4.4 variant); Log[Drug] -10.52): 2.403
- β-arrestin2 recruitment response at DRD4 (source data, replicate values) (DRD4 (D4.4 variant); Log[Drug] -11): 4.161 and -1.784 and -1.43 and 0.349 and 0.8023 and -0.5301 and 2.686 and -0.07952 and -0.04373
- β-arrestin2 recruitment response at DRD4 (source data, replicate values) (DRD4 (D4.4 variant); Log[Drug] -11.52): 0.6452 and -1.9266 and -1.439 and -0.7995 and -0.6204 and 1.59 and -0.483 and -0.008444 and -0.04903
- β-arrestin2 recruitment response, agonist mode (single replicate values) (5HT1F; Log[Drug] -8): -0.9904 and 0.5932 and 0.4069 and -0.749 and -2.5023 and -1.954 and -1.184 and -1.248 and -0.2773
- β-arrestin2 recruitment response, agonist mode (single replicate values) (5HT1F; Log[Drug] -8.52): 0.3187 and 0.8997 and 1.294 and 0.7694 and -1.144 and -0.1941 and 0.6567 and 0.7348 and -0.5451
- β-arrestin2 recruitment response, agonist mode (single replicate values) (5HT1F; Log[Drug] -9): 0.2574 and -0.174 and 0.01716 and -1.454 and -1.951 and -2.373 and 1.634 and -1.575 and -0.4734
- β-arrestin2 recruitment response, agonist mode (single replicate values) (5HT1F; Log[Drug] -9.52): -0.956 and -0.4682 and 0.01716 and 8.249 and -1.726 and -1.835 and -1.503 and -0.6631 and 0.5435
- β-arrestin2 recruitment response, agonist mode (single replicate values) (5HT1F; Log[Drug] -10): 2.1842 and 2.2749 and -0.3922 and 0.1736 and 1.58 and -1.964 and -1.621 and -1.4329 and 0.0271
- β-arrestin2 recruitment response, agonist mode (single replicate values) (5HT1F; Log[Drug] -10.52): 0.6104 and 0.6079 and -0.2672 and -0.6094 and -0.8784 and -1.423 and 0.2215 and -0.4766 and -0.1562
- β-arrestin2 recruitment response, agonist mode (single replicate values) (5HT1F; Log[Drug] -11): -0.2991 and -0.7746 and -0.956 and -0.1975 and -1.559 and -1.001 and -0.7953 and -1.428 and -1.442
- β-arrestin2 recruitment response, agonist mode (single replicate values) (5HT1F; Log[Drug] -11.52): 9.046 and 4.9 and 0.09315 and 0.6026 and -0.4766 and -1.413 and -2.451 and -1.372 and 1.5094
- β-arrestin2 recruitment response, agonist mode (single replicate values) (5HT1F; Log[Drug] -12): -1.25 and -0.8555 and 2.1082 and 1.035 and 1.318 and -2.3525 and 0.1164 and 0.6822 and -0.7969
- Fig_S10j dose-response, drug alone (agonist mode), β-arrestin2 recruitment (5HT1F; Log[Drug] -5): 1.292 and 2.037 and 1.765 and 2.135 and 0.1634 and 3.054 and 1.165 and -0.4495 and -0.04941
- Fig_S10j dose-response, drug alone (agonist mode), β-arrestin2 recruitment (5HT1F; Log[Drug] -5.52): -0.7085 and 0.2942 and 0.1765 and 0.7149 and -0.06809 and -1.164 and 0.2965 and -1.31 and 0.1036
- Fig_S10j dose-response, drug alone (agonist mode), β-arrestin2 recruitment (5HT1F; Log[Drug] -6): -1.684 and 5.405 and 2.934 and -0.3268 and -0.4664 and -1.437 and 0.7141 and -1.815 and -1.243
- Fig_S10j dose-response, drug alone (agonist mode), β-arrestin2 recruitment (5HT1F; Log[Drug] -6.52): 1.461 and 1.956 and 0.6766 and -2.305 and -1.43 and 2.938 and -0.4511 and -1.052 and 1.639
- Fig_S10j dose-response, drug alone (agonist mode), β-arrestin2 recruitment (5HT1F; Log[Drug] -7): -0.5859 and 0.3873 and 1.292 and -1.294 and -0.606 and 1.008 and -0.03666 and -1.56 and -1.246
- Fig_S10j dose-response, drug alone (agonist mode), β-arrestin2 recruitment (5HT1F; Log[Drug] -7.52): -0.7844 and 5.5181 and -0.1961 and 0.48 and -1.147 and -0.875 and -0.2471 and -0.4702 and -1.368
